Laboratory results published in patent US5407660A, “Diagnostic liposomal compositions for enhancing NMR imaging” (Mallinckrodt Medical, Inc., priority 1993, dated 1995).
Entries after “also recorded” stand apart in the source; their conditions may differ. Read-outs that look alike come from different tables or passages of the source.

Key:
[1] = format: in vivo, marmosets; details: for T1 (mean), Blood: 0.3 ml/kg, pre-contrast 507
[2] = Biodistribution of 54MnNa2 EDTA and 54Mn-L in rats (Example 5); format: in vivo, Sprague-Dawley rats
Excerpt: A total of forty Sprague-Dawley rats (20 male, 217-295 g; 20 female, 151-208 g; Charles River) were used. Drinking water was provided ad libitum. The animals, 2 males and 2 females per group, were selected randomly from their cages and were identified with indelible ink numbers at tail bases before test substance administration.
Rats were divided into 10 groups consisting of 2 male and 2 female rats per group. […] Immediately after dosing, rats were housed in individual metabolism cages. Ground Purina Laboratory Chow and water were supplied ad libitum to animals sacrificed at 24 and 48 hr after treatment. Rats from both ^54 NmNa2 EDTA and ^54 Mn-L treatment groups were sacrificed by cervical dislocation at 0.5, 2, 4, 24 and 48 hr after treatment, and the following samples were obtained: injection site, blood, liver, lung, spleen, heart, kidneys, salivary gland (submaxillary), brain, bone with marrow, muscle and fat. Urine samples were obtained from animals sacrificed at all intervals of 2 hr or more after injection and fecal samples were obtained from animals sacrificed at 24 and 48 hr after treatment. […] The entire organ weights were determined for the remaining tissues.
Levels of radioactivity in the biological specimens and aliquots of the injected test substances were determined using a gamma scintillation spectrometer (Model 1085, Nuclear Chicago Corp., Des Plaines, Ill.). Results were calculated on a percent dose/organ (or fluid) and a percent dose/g (or ml) basis using an HP-85 desk top computer (Hewlett Packard, Fort Collins, Colo.).
Kinetic data for the elimination of radioactivity from liver, spleen, kidneys, heart and bone with marrow were curve fitted by the peeling and least-square methods, to mono or bi-exponential equations: [formula]
The half-life (t 1/2) for each elimination phase was calculated as 0.693/Ki. The square of the correlation coefficient (r^2) for each elimination phase was calculated as an indication of variability.

[3] = test system: isolated perfused rabbit heart; experiment: Intracoronary cardiotoxicity in the isolated perfused rabbit heart (IPRH)
Protocol: (§1) In addition, the cardiotoxic effects of single bolus intracoronary arterial injections of 4, 8, 16 or 32 mg MnCl2 were evaluated in the isolated perfused rabbit heart (IPRH).
(§2) The aqueous vehicle for the suspension of negatively charged liposomes consisted of 0.9% NaCl buffered with 0.003 M sodium phosphate, pH 7.4. The lipid concentration was 50 μmol/ml.
A total of 8 female, New Zealand albino rabbits, with body weights ranging from 1.97-2.96 kg were used in the study.
Rabbits were sacrificed by cervical dislocation, the hearts excised and coronary perfusion was performed at constant pressure via the aortic root using an oxygenated physiological salt solution (Chenoweth's solution) heated to 37° C. A 0.8%, w/v, solution of MnCl2 was heated to 37° C. and intracoronary bolus injections of 0.5, 1.0, 2.0 and 4.0 ml were made in each of the six hearts via a sidearm of the perfusion apparatus. A period of time sufficient to allow the heart to stabilize was allowed between injections. The heart rate (HR), contractile force (CF) and electrocardiogram (ECG) were recorded on a Grass Model 7 polygraph. The maximal percentage changes from pre-injection control values for HR and CF were determined during intervals of […] and 15-30 seconds after injection. The percentage changes from control HR and CF were also recorded at 1, 2, 3 and 4 minutes after injection. The ECG was examined for arrhythmias. When ventricular fibrillation (VF) occurred, no calculations were performed with CF and HR data from that injection.

[4] = Acute intravenous toxicity in mice (Example 4); details: for Cumulative Mortalities/Number Dosed, Female / Cumulative Mortalities/Number Dosed, Male: 7 days; for LD50: 7-day observation
Protocol: as §1, §2
A total of 60 mice, 30 males (body weight range of 20-33.5 g) and 30 females (body weight range of 19.1-29.7 g) were used. Fifty of the mice were Swiss ICR, CD-1, obtained from Charles River and ten were Swiss CF-1 obtained from Sasco (Omaha, Neb.).
The four test substances were administered via the lateral tail vein of the mouse at a rate of 1 ml/min with the following doses given.

[5] = 32 mg dose, 0-15 s, only 1 heart, all others had VF

O.O.O=C([O-])CN(CC(=O)[O-])[C@@H]1CCCC[C@H]1N(CC(=O)[O-])CC(=O)[O-].[Mn+2].[Na+].[Na+] (relative stereo) [EXAMPLE 1 (E), disodium (trans-1,2-diaminocyclohexane-N,N,N',N'-tetraacetate) manganese dihydrate]
Blood (5 min) and liver T1 values (in words) ([1]; 0.3 ml/kg i.v.): substantially reduced
several other tissue T1's (in words) ([1]; 0.3 ml/kg i.v.): slightly reduced
T1 (mean), Blood ([1]; 5 minute): 375
T1 (mean), Blood ([1]; 10 minute): 454
Tissue T1 (mean), Bladder ([1]; 15 min after 0.3 ml/kg): 217
Tissue T1 (mean), Fat ([1]; 15 min after 0.3 ml/kg): 68
Tissue T1 (mean), Large Intestine ([1]; 15 min after 0.3 ml/kg): 185
Tissue T1 (mean), Liver ([1]; 15 min after 0.3 ml/kg): 32
Tissue T1 (mean), Lung ([1]; 15 min after 0.3 ml/kg): 280
Tissue T1 (mean), Pancreas ([1]; 15 min after 0.3 ml/kg): 103
Tissue T1 (mean), Renal Cortex ([1]; 15 min after 0.3 ml/kg): 152
Tissue T1 (mean), Renal Medulla ([1]; 15 min after 0.3 ml/kg): 209
Tissue T1 (mean), Skeletal Muscle ([1]; 15 min after 0.3 ml/kg): 206
Tissue T1 (mean), Small Intestine ([1]; 15 min after 0.3 ml/kg): 107
Tissue T1 (mean), Spleen ([1]; 15 min after 0.3 ml/kg): 221
Tissue T1 (mean), Stomach ([1]; 15 min after 0.3 ml/kg): 145
Tissue T1 (mean), Heart ([1]; 15 min after 0.3 ml/kg (0.118 mmol Mn(II)/kg)): 183
T1 (mean), Blood ([1]; 15 minute): 511
Cardiovascular effects ([1]; in vivo, iv): minimal

O=C([O-])CN(CCN(CC(=O)[O-])CC(=O)[O-])CC(=O)[O-].[54Mn+2].[Na+].[Na+] [^54 MnNa2 EDTA, disodium (ethylenediaminetetraacetato) manganese (II)]
distribution, percent dose/organ (in words) ([2]; 0.5-48 hr): distributed primarily to the liver, bone with marrow, muscle and kidneys
bone and marrow half-life ([2]; bone and marrow): > 100 h
heart half-life, monophasic elimination ([2]; heart): approximately 8 hr
blood disappearance/clearance (in words) ([2]; intravenous): rapidly cleared from the blood
share associated with rapid first phase renal elimination ([2]; kidney): Approximately 81%
renal clearance t 1/2, initial rapid phase ([2]; kidney, biphasic): < 1 h
renal clearance t 1/2, secondary slow phase ([2]; kidney, biphasic): > 17 h
share associated with rapid first phase hepatic elimination ([2]; liver): Approximately 92%
hepatic clearance t 1/2, initial rapid phase ([2]; liver, biphasic): < 1 h
hepatic clearance t 1/2, secondary slow phase ([2]; liver, biphasic): > 17 h
spleen half-life, monophasic elimination ([2]; spleen): ~ 2 hr
dose eliminated in the urine ([2]; within 2 hr after treatment): > 50%

[Cl][Mn][Cl] [MnCl2, manganese (II) chloride]
Incidence of Ventricular Fibrillation (VF) ([3]; 4 mg dose): 0/6
Mean % Change in Contractile Force (CF) ([3]; 4 mg dose, 0-15 s): -5%
Mean % Change in Heart Rate (HR) ([3]; 4 mg dose, 0-15 s): -2%
Mean % Change in Contractile Force (CF) ([3]; 4 mg dose, 15-30 s): -28%
Mean % Change in Heart Rate (HR) ([3]; 4 mg dose, 15-30 s): -2%
Mean % Change in Contractile Force (CF) ([3]; 4 mg dose, 1 min): -12%
Mean % Change in Contractile Force (CF) ([3]; 4 mg dose, 2 min): +5%
Mean % Change in Heart Rate (HR) ([3]; 4 mg dose, 2 min): -2%
Incidence of Ventricular Fibrillation (VF) ([3]; 8 mg dose): 0/6
Mean % Change in Contractile Force (CF) ([3]; 8 mg dose, 0-15 s): -74%
Mean % Change in Heart Rate (HR) ([3]; 8 mg dose, 0-15 s): -8%
Mean % Change in Contractile Force (CF) ([3]; 8 mg dose, 15-30 s): -38%
Mean % Change in Heart Rate (HR) ([3]; 8 mg dose, 15-30 s): -7%
Mean % Change in Contractile Force (CF) ([3]; 8 mg dose, 1 min): -17%
Mean % Change in Heart Rate (HR) ([3]; 8 mg dose, 1 min): -7%
Mean % Change in Contractile Force (CF) ([3]; 8 mg dose, 2 min): +2%
Mean % Change in Heart Rate (HR) ([3]; 8 mg dose, 2 min): -6%
Incidence of Ventricular Fibrillation (VF) ([3]; 16 mg dose): 2/6
Mean % Change in Contractile Force (CF) ([3]; 16 mg dose, 0-15 s): -92%
Mean % Change in Heart Rate (HR) ([3]; 16 mg dose, 0-15 s): -31%
Mean % Change in Contractile Force (CF) ([3]; 16 mg dose, 15-30 s): -61%
Mean % Change in Heart Rate (HR) ([3]; 16 mg dose, 15-30 s): -14%
Mean % Change in Contractile Force (CF) ([3]; 16 mg dose, 1 min): -37%
Mean % Change in Heart Rate (HR) ([3]; 16 mg dose, 1 min): -14%
Mean % Change in Contractile Force (CF) ([3]; 16 mg dose, 2 min): -1%
Mean % Change in Heart Rate (HR) ([3]; 16 mg dose, 2 min): -11%
premature ventricular contractions in hearts which did not fibrillate ([3]; 16 mg dose, during or immediately after injection): two of the four hearts
Incidence of Ventricular Fibrillation (VF) ([3]; 32 mg dose): 5/6
conduction block in the single heart which failed to fibrillate ([3]; 32 mg dose): complete A-V conduction block with ventricular standstill
Mean % Change in Contractile Force (CF) [3, 5]: -100%
Mean % Change in Heart Rate (HR) [3, 5]: -100%
Mean % Change in Contractile Force (CF) ([3]; 32 mg dose, 15-30 s): -64%
Mean % Change in Heart Rate (HR) ([3]; 32 mg dose, 15-30 s): -17%
Mean % Change in Contractile Force (CF) ([3]; 32 mg dose, 1 min): -33%
Mean % Change in Heart Rate (HR) ([3]; 32 mg dose, 1 min): -17%
Mean % Change in Contractile Force (CF) ([3]; 32 mg dose, 2 min): +2%
Mean % Change in Heart Rate (HR) ([3]; 32 mg dose, 2 min): -14%
arrhythmias (in words) ([3]; 4-32 mg): dose-related incidence of arrhythmias; also recorded: conduction delays and ventricular arrhythmias
effect on CF and HR (in words) ([3]; 4-32 mg, maximal within 0-15 seconds): Dose-related decreases in CF and HR; also recorded: dose-related depression of contractility and heart rate
PR and QRS intervals ([3]; ECG, 4-32 mg): dose-related increases in PR and QRS intervals
Cumulative Mortalities/Number Dosed, Female ([4]; 25 mg/kg i.v.): 1/5
Cumulative Mortalities/Number Dosed, Male ([4]; 25 mg/kg i.v.): 3/5
Cumulative Mortalities/Number Dosed, Female ([4]; 31.25 mg/kg i.v.): 4/5
Cumulative Mortalities/Number Dosed, Male ([4]; 31.25 mg/kg i.v.): 2/5
Cumulative Mortalities/Number Dosed, Female ([4]; 37.5 mg/kg i.v.): 4/5
Cumulative Mortalities/Number Dosed, Male ([4]; 37.5 mg/kg i.v.): 4/5
time of death after dosing was completed ([4]; all deaths with the exception of one (4 days)): one
acute intravenous toxicity (in words) ([4]; intravenous, mice): high degree of acute toxicity
LD50 ([4]; intravenous, mice, 10080 min): 28 mg/kg
LD50 ([4]; intravenous, mice, listed as 1, 10080 min): 28.0 mg/kg
LD50 as Mn(II) ([4]; intravenous, mice, 10080 min): 0.22 mmol/kg of Mn(II)
cause of death ([4]; intravenous, mice, thoracotomy of one mouse): cardiac arrest
